Where two headings read alike, the source gives them in different places.
Assays:
[1] = target: T1, CD25 on Karpas-299 ADCR cells (Homo sapiens, UniProt P01589); test: CD25 antibody binding, flow cytometry; conditions: Karpas-299 ADCR vs wt, 1 hour on ice
T1 construct: endogenous in cells; host or cells: Karpas-299 acquired-resistant sublines (ADCR: selected with ADCT-301; PBDR: selected with SG3199)
T1 sequence (P01589 22-272): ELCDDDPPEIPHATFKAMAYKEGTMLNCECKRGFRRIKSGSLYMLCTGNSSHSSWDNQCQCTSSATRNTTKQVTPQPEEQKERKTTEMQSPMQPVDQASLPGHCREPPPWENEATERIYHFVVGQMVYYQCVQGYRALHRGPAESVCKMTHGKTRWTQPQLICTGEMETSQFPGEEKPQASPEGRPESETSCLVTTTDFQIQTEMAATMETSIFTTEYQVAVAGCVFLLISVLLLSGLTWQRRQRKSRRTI
Procedure: (§1) Karpas wt and acquired resistant cells were blocked at 4° C. for 30 mins before being incubated with a serial dilution series of HuMax-TAC mAb for 1 hour on ice. The cells were then washed and incubated with a F(ab′)2-Goat anti-Human IgG Fc Secondary Antibody conjugated to Alexa Fluor 488. After incubation for 1 hour on ice in the dark the cells were washed and run on a Fortessa X20 flow cytometer, and the mean fluorescence intensity (MFI) determined using the B530/30 laser/filter. […] In NCI-N87 cell lines there was a small decrease in MFI reached by the PBDr cell line, but the ADCr cell line was unchanged compared to the parental line (data not shown). However all cells continued to express high levels of antigen.

[2] = target: T2, CD25 on Karpas-299 PBDR cells (Homo sapiens, UniProt P01589); test: CD25 antibody binding, flow cytometry; conditions: Karpas-299 PBDR vs wt, 1 hour on ice
T2 construct: endogenous in cells; host or cells: Karpas-299 acquired-resistant sublines (ADCR: selected with ADCT-301; PBDR: selected with SG3199)
T2 sequence (P01589 22-272): T1 sequence (P01589 22-272)
Procedure: as §1

[3] = tested on: Karpas-299 ADCr cells; test: Drug transporter inhibitor combination growth inhibition (MTS); format: cell-based, human; conditions: for re-sensitisation to ADCT-301 treatment: MK-571 (5 μM) or FTC (10 μM) for 24 hours before ADC
Procedure: (§2) The in vitro cytotoxicity assay (MTS) was carried out as previously described.
(§3) Cells were seeded at 10,000 cells per well in a flat bottom 96-well plate, and NCI-N87 cell were incubated overnight to allow for cell attachment.
(§4) For ADC growth inhibition assays, cells were then incubated with serial dilutions of ADCT-301 or ADCT-502 in triplicate.
(§5) Growth inhibition was measured after 96 hours in Karpas-299 cells and 144 hours in NCI-N87 cells using the CellTiter 96 AQueous One MTS Solution (Promega) and absorbance measured on a Multiskan Ascent plate reader (ThermoFisher) at 492 nm.
(§6) Growth inhibition was calculated as a percentage of absorbance compared to an untreated control, and IC50 values were calculated using the sigmoidal, 4PL, X is log(concentration) equation in GraphPad Prism. […]

[4] = tested on: Karpas-299 PBDr cells; test: as above; format: cell-based, human; conditions: for re-sensitisation to ADCT-301 treatment: MK-571 (5 μM) or FTC (10 μM) for 24 hours before ADC
Procedure: as §2, §3, §4, §5, §6

[5] = tested on: NCI-N87 ADCr cells; test: as above; format: cell-based, human; conditions: for response to ADCT-502: MK-571 (5 μM) or FTC (10 μM) for 24 hours before ADC
Procedure: as §3, §4, §5
(§7) Growth inhibition was calculated as a percentage of absorbance compared to an untreated control, and IC50 values were calculated using the sigmoidal, 4PL, X is log(concentration) equation in GraphPad Prism.
(§8) For drug transporter inhibitor combination cytotox, the resistant cell lines were incubated overnight with either 5 μM MK-571 (ABCC2 inhibitor), 10 μM FTC (ABCG2 inhibitor), 5 μM Reversin-121 ([…]) overnight before carrying out the ADC or PBD growth inhibition assay as previously described.

[6] = tested on: NCI-N87 PBDr cells; test: as above; format: cell-based, human; conditions: for response to ADCT-502: MK-571 (5 μM) or FTC (10 μM) for 24 hours before ADC
Procedure: as §3, §4, §5, §7, §8

[7] = tested on: NCI-N87 ADCr cells (ADCT-502 acquired resistant); test: MTS in vitro cytotoxicity, 144 h continuous exposure; format: cell-based, human; conditions: for cross-resistance (MTS growth inhibition compared to the parental cell line): NCI-N87 ADCr vs parental
Procedure: (§13) To generate a resistant population to either ADCT-502 or SG3199, human gastric cancer NCI-N87 cells (expressing HER2) were incubated with an approximate IC50 dose of the drug for 144 hours. The cells were then washed and returned to fresh medium until normal cell growth was recovered. This process was repeated until a measurable and stable loss in cytotoxic efficacy was established using the MTS assay.
(§14) To measure the in vitro cytotoxicity with the MTS assay, cells were incubated with a 10-fold dilution range of ADCT-502 or SG3199, and incubated with continuous exposure for 144 hours (at least three cell doubling times under normal cell culture conditions). After incubation the CellTiter 960 AQueous One Solution Cell Proliferation Assay (MTS) was used to measure growth inhibition, by adding 20 μl reagent to the cells and incubating for 3-4 hours, then reading the absorbance at 492 nm. Mean % growth of the ADC or PBD treated cells was calculated relative to an untreated control.
(§15) To measure the cross-resistance of the NCI-N87 ADCR cells to the SG3199 PBD warhead, and the PBDR cells to ADCT-502, the in vitro cytotoxicity assay was carried out as described above, treating the cells with the opposite drug molecule to the one with which they were generated.

[8] = tested on: NCI-N87 PBDr cells (SG3199 acquired resistant); test: as above; format: cell-based, human; conditions: for cross-resistance (MTS growth inhibition compared to the parental cell line): NCI-N87 PBDr vs parental
Procedure: as §13, §14, §15

[9] = tested on: Karpas ADCr cells (ADCT-301 acquired resistant Karpas-299); test: MTS in vitro cytotoxicity, 96 h continuous exposure
Procedure: (§9) To generate a resistant population to either ADCT-301 or SG3199, human anaplastic large cell lymphoma Karpas-299 cells (expressing CD25) were incubated with an approximate IC50 dose of the drug for 96 hours. The cells were then washed and returned to fresh medium until normal cell growth was recovered. This process was repeated until a measurable and stable loss in cytotoxic efficacy was established using the MTS assay.
(§10) To measure the in vitro cytotoxicity with the MTS assay, cells were incubated with a 10-fold dilution range of ADCT-301 or SG3199, and incubated with continuous exposure for 96 hours (at least three cell doubling times under normal cell culture conditions). After incubation the […] AQueous One Solution Cell Proliferation Assay (MTS) was used to measure growth inhibition, by adding 20 μl reagent to the cells and incubating for 3-4 hours, then reading the absorbance at 492 nm. Mean % growth of the ADC or PBD treated cells was calculated relative to an untreated control.
(§11) To measure the cross-resistance of the Karpas ADCR cells to the SG3199 PBD warhead, and the PBDR cells to ADCT-301, the in vitro cytotoxicity assay was carried out as described above, treating the cells with the opposite drug molecule to the one with which they were generated.
(§12) To measure the cross-resistance of the Karpas ADCR and PBDR cells to the PBD dimer warhead SG2000, the in vitro cytotoxicity (MTS) assay was carried out as previously described in Example 2.

[10] = tested on: Karpas PBDr cells (SG3199 acquired resistant Karpas-299); test: as above
Procedure: as §9, §10, §11, §12

[11] = tested on: Karpas-299 wt cells; test: as above; format: cell-based; conditions: Homo sapiens, KARPAS-299, read-out: IC50 nM
Procedure: To measure the in vitro cytotoxicity with the MTS assay, cells were incubated with a 10-fold dilution range of ADCT-301 or SG3199, and incubated with continuous exposure for 96 hours (at least three cell doubling times under normal cell culture conditions). After incubation the CellTiter 960 AQueous One Solution Cell Proliferation Assay (MTS) was used to measure growth inhibition, by adding 20 μl reagent to the cells and incubating for 3-4 hours, then reading the absorbance at 492 nm. Mean % growth of the ADC or PBD treated cells was calculated relative to an untreated control.

[12] = tested on: NCI-N87 wt cells; test: MTS in vitro cytotoxicity, 144 h continuous exposure; format: cell-based, human; conditions: Homo sapiens, NCI-N87, 144 h, read-out: IC50 pM
Procedure: as §13, §14, §15

[13] = Homo sapiens, KARPAS-299, read-out: IC50 nM
[14] = Homo sapiens, NCI-N87, 144 h, read-out: IC50 pM

HuMax-TAC: fully human monoclonal IgG1,K antibody, VH SEQ ID NO. 1 and VL SEQ ID NO. 2; binds CD25
peak MFI of antibody binding compared to wildtype [1]: small decrease in peak MFI | MFI of antibody binding compared to wildtype [2]: identical to wildtype cells

CN(C)C(=O)CCSC(SCCC(=O)[O-])c1cccc(/C=C/c2ccc3ccc(Cl)cc3n2)c1.[Na+] (stereo not drawn) [MK-571]
reversal of acquired resistance to ADCT-301 ([3]; Karpas ADCr, 50 μM MK-571, 96-hour continuous exposure to ADCT-301): partially reverse the resistance | re-sensitisation to ADCT-301 treatment ([3]; Karpas-299 ADCr): dramatic re-sensitisation | reversal of acquired resistance to ADCT-301 ([4]; Karpas PBDr, 50 μM MK-571, 96-hour continuous exposure to ADCT-301): partially reverse the resistance | re-sensitisation to ADCT-301 treatment ([4]; Karpas-299 PBDr): dramatic re-sensitisation | response to ADCT-502 [5]: restored to the level of the parental cell line | response to ADCT-502 [6]: restored to the level of the parental cell line

N.N.[Cl][Pt][Cl] [cisplatin]
cross-resistance (MTS growth inhibition compared to the parental cell line) [7]: decrease in growth inhibition | cross-resistance (MTS growth inhibition compared to the parental cell line) [8]: decrease in growth inhibition

CC[C@H](C)C(=O)O[C@H]1C[C@@H](C)C=C2C=C[C@H](C)[C@H](CC[C@@H]3C[C@@H](O)CC(=O)O3)[C@H]21 [Lovastatin]
reversal of resistance by SLCO2B1 inhibitor ([3]; Karpas-299 ADCr, 10 nM Lovastatin with ADCT-301): failed to reverse the resistance | reversal of resistance by SLCO2B1 inhibitor ([4]; Karpas-299 PBDr, 10 nM Lovastatin with ADCT-301): failed to reverse the resistance | reversal of resistance by SLCO2B1 inhibitor ([5]; 5 μM Lovastatin with ADCT-502): failed to reverse the resistance | reversal of resistance by SLCO2B1 inhibitor ([6]; 5 μM Lovastatin with ADCT-502): failed to reverse the resistance

N[C@@H](Cc1ccc(N(CCCl)CCCl)cc1)C(=O)O [melphalan]
cross-resistance (MTS cytotoxic sensitivity compared to wt cells) ([9]; Karpas ADCr vs wt/parental): No cross-resistance | cross-resistance (MTS cytotoxic sensitivity compared to wt cells) ([10]; Karpas PBDr vs wt/parental): No cross-resistance | cross-resistance (MTS growth inhibition compared to the parental cell line) [7]: decrease in growth inhibition | cross-resistance (MTS growth inhibition compared to the parental cell line) [8]: decrease in growth inhibition

COc1cccc2c1C(=O)c1c(O)c3c(c(O)c1C2=O)C[C@@](O)(C(=O)CO)C[C@@H]3O[C@H]1C[C@H](N)[C@H](O)[C@H](C)O1 [doxorubicin]
cross-resistance (MTS cytotoxic sensitivity compared to wt cells) [9]: No cross-resistance | cross-resistance (MTS cytotoxic sensitivity compared to wt cells) [10]: No cross-resistance | cross-resistance (MTS growth inhibition compared to the parental cell line) [7]: decrease in growth inhibition | cross-resistance (MTS growth inhibition compared to the parental cell line) [8]: decrease in growth inhibition

C=C1C[C@H]2C=Nc3cc(OCCCOc4cc5c(cc4OC)C(=O)N4CC(=C)C[C@H]4C=N5)c(OC)cc3C(=O)N2C1 [SG2000]
IC50 [11]: 0.9 nM | IC50 [9, 13]: 2.8 nM | fold resistance compared to wildtype ([9]; Karpas ADCr vs Karpas wt IC50): 3.1 fold | IC50 [10, 13]: 4.7 nM | fold resistance compared to wildtype ([10]; Karpas PBDr vs Karpas wt IC50): 5.2 fold | IC50 [12]: 64 pM | IC50 [7, 14]: 483 pM | fold resistance compared to wildtype ([7]; NCI-N87 ADCr vs NCI-N87 wt IC50): 7.5 fold | IC50 [8, 14]: 493 pM | fold resistance compared to wildtype ([8]; NCI-N87 PBDr vs NCI-N87 wt IC50): 7.7 fold

COc1ccc2c3c([nH]c2c1)[C@H](C=C(C)C)N1C(=O)[C@@H]2CCCN2C(=O)[C@@H]1C3 [FTC, Fumitremorgin C]
re-sensitisation to ADCT-301 treatment ([3]; Karpas-299 ADCr): dramatic re-sensitisation | re-sensitisation to ADCT-301 treatment ([4]; Karpas-299 PBDr): dramatic re-sensitisation | response to ADCT-502 [5]: restored to the level of the parental cell line | response to ADCT-502 [6]: restored to the level of the parental cell line

From US20220347309A1, “PYRROLOBENZODIAZEPINE RESISTANCE” (ADC THERAPEUTICS SA, priority 2018, published 2022)
